The text below walks through data of patent US8541588B2, “Sulfonamide derivatives” (Pfizer Limited, priority 2009, dated 2013).

The target of one test is T1, Nav1.7 (or SCN9A) channel; HEK cells stably transfected with hSCN9A (Homo sapiens, UniProt Q15858).
T1 construct: expressed in transfected cells
T1 sequence (Q15858 whole entry): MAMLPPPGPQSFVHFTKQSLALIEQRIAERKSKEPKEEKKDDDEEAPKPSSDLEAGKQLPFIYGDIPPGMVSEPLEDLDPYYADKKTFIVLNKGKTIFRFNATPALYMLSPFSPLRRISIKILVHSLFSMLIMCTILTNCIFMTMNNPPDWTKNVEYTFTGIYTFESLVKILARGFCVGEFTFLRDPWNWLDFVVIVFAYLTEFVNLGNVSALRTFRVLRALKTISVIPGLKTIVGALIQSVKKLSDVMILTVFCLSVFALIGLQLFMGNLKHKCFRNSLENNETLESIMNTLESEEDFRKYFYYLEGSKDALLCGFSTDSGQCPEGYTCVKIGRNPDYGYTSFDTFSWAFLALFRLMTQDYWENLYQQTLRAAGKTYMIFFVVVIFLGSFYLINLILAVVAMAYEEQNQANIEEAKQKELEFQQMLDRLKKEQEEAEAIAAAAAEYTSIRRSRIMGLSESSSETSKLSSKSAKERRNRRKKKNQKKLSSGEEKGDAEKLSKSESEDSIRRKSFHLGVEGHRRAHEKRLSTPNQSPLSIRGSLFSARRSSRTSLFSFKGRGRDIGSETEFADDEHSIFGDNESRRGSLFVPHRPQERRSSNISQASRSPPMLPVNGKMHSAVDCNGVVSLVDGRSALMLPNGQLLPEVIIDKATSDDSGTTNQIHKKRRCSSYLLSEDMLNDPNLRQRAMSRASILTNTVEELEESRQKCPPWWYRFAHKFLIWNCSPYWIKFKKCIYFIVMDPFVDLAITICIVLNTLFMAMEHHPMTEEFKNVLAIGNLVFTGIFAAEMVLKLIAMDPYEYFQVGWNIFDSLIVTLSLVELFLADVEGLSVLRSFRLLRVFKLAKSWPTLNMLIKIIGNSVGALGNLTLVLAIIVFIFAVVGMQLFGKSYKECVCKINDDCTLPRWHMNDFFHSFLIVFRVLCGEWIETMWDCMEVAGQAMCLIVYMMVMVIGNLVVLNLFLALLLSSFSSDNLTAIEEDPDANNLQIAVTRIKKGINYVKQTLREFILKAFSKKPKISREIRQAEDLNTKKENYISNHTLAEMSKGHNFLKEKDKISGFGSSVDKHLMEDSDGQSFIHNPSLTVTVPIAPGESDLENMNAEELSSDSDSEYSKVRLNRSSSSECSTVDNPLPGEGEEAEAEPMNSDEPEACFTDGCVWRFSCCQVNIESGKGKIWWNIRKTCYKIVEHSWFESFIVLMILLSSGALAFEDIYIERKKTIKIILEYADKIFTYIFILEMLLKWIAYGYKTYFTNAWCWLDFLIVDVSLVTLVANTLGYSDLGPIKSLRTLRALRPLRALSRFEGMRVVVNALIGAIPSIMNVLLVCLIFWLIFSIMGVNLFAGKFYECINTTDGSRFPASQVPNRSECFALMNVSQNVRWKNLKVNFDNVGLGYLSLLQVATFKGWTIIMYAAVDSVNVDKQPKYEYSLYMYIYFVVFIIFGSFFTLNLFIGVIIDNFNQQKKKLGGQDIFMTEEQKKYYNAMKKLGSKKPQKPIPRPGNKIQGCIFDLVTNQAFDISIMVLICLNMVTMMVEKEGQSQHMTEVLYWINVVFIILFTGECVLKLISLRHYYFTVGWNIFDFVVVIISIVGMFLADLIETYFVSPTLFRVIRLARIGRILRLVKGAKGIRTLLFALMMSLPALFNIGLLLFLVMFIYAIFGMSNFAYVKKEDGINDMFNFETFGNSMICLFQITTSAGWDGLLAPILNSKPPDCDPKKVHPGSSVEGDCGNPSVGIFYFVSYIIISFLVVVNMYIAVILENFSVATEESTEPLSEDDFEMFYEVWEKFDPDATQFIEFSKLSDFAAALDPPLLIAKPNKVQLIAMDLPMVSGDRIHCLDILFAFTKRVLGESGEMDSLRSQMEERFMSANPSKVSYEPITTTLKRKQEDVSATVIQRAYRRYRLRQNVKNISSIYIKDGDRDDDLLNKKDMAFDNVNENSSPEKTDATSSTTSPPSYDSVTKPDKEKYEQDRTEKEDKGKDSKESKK
Briefly: Nav1.7 block, PatchXpress 7000 automated whole-cell voltage clamp, estimated IC50 (EIC50). The class given is cell-based. The settings on record: PatchXpress platform; hSCN9A HEK cells held at V1/2 of inactivation; estimated IC50.
Take `N#Cc1cc(S(=O)(=O)Nc2ncns2)ccc1Oc1nnccc1-c1ccccc1` [Example 21, 3-cyano-4-[(4-phenylpyridazin-3-yl)oxy]-N-1,2,4-thiadiazol-5-ylbenzenesulfonamide]: the IC50 (commonly the concentration that gives 50% inhibition) was greater than 10000 nM.
Still for that read-out and setting: the value for `O=S(=O)(Nc1ncns1)c1ccc(Oc2ccc(CC3CC3)cc2)c(Cl)c1` [Example 148, 3-chloro-4-[4-(cyclopropylmethyl)phenoxy]-N-1,2,4-thiadiazol-5-ylbenzenesulfonamide] was 2530 nM.
Consider `O=S(=O)(Nc1nccs1)c1ccc(Oc2ccccc2-c2ccccc2)nc1` [Example 278, 6-(biphenyl-2-yloxy)-pyridine-3-sulfonic acid thiazol-2-ylamide], for which the IC50 is 2660 nM.
The same measure, in the same setting: the value for `Cn1ccc(-c2ccc(Oc3ccc(S(=O)(=O)Nc4nccs4)cc3C#N)c(Cl)c2)n1` [Example 178, 4-(2-chloro-4-(1-methyl-1H-pyrazol-3-yl)phenoxy)-3-cyano-N-(thiazol-2-yl)benzenesulfonamide] was 3080 nM.
Consider `COCc1ccc(-c2cc(F)ccc2Oc2ccc(S(=O)(=O)Nc3nccs3)cc2C#N)cc1` [Example 163, 3-cyano-4-{[5-fluoro-4′-(methoxymethyl)biphenyl-2-yl]oxy}-N-1,3-thiazol-2-ylbenzenesulfonamide], for which the IC50 was 410 nM.
Regarding `Cc1cccc(-c2ccc(F)c(F)c2)c1Oc1ccc(S(=O)(=O)Nc2ncns2)cc1C#N` [Example 44, 3-cyano-4-[(3′,4′-difluoro-3-methylbiphenyl-2-yl)oxy]-N-1,2,4-thiadiazol-5-ylbenzenesulfonamide], the IC50 was 5930 nM.
The same measure, in the same setting: the value for `Cn1nccc1-c1ccccc1Oc1ccc(S(=O)(=O)Nc2nccs2)cc1F` [Example 3, 3-fluoro-4-(2-(1-methyl-1H-pyrazol-5-yl)phenoxy)-N-(thiazol-2-yl)benzenesulfonamide] was 100 nM; that for `Cc1cnsc1-c1ccccc1Oc1ccc(S(=O)(=O)Nc2nccs2)cc1F` [Example 129, 3-fluoro-4-[2-(4-methylisothiazol-5-yl)phenoxy]-N-1,3-thiazol-2-ylbenzenesulfonamide] was 700 nM; that for `N#Cc1cc(S(=O)(=O)Nc2ncc(Cl)s2)ccc1Oc1ccccc1C1CC1` [Example 144, N-(5-chloro-1,3-thiazol-2-yl)-3-cyano-4-(2-cyclopropylphenoxy)benzenesulfonamide] was 1390 nM.
`COc1ccccc1-c1ccccc1Oc1ccc(S(=O)(=O)Nc2nccs2)c(F)c1` [Example 207, 2-fluoro-4-(2′-methoxybiphenyl-2-yloxy)-N-(thiazol-2-yl)benzenesulfonamide]: the IC50 was 1030 nM.

The test is the same for the next values; noted with them: estimated IC50; hSCN9A HEK cells, PatchXpress platform; Examples 283-814.
Turning to `N#Cc1cc(S(=O)(=O)Nc2nccs2)ccc1Oc1ccc(-c2cc(C3CC3)n[nH]2)c(Cl)c1` [Example 373, 4-[3-chloro-4-(3-cyclopropyl-1H-pyrazol-5-yl)phenoxy]-3-cyano-N-1,3-thiazol-2-ylbenzenesulfonamide], the IC50 was greater than 1000 nM.
Turning to `COc1cc(Oc2ccc(S(=O)(=O)Nc3ccc(F)cn3)cc2C#N)ccc1-n1cnc(C)c1` [Example 575, 3-cyano-N-(5-fluoropyridin-2-yl)-4-[3-methoxy-4-(4-methyl-1H-imidazol-1-yl)phenoxy]benzenesulfonamide], the IC50 is greater than 30000 nM.
Regarding `N#Cc1cc(S(=O)(=O)Nc2nccs2)ccc1Oc1ccc(Cl)cc1CN1CCC(F)(F)C1` [Example 360, 4-{4-chloro-2-[(3,3-difluoropyrrolidin-1-yl)methyl]phenoxy}-3-cyano-N-1,3-thiazol-2-ylbenzenesulfonamide], the IC50 is 330 nM.
Same read-out and setting: the figure for `O=S(=O)(Nc1ccncn1)c1ccc(Oc2ccc(Cl)cc2-c2ccn[nH]2)c(Cl)c1` [Example 746, 3-chloro-4-[4-chloro-2-(1H-pyrazol-5-yl)phenoxy]-N-pyrimidin-4-ylbenzenesulfonamide] is 95 nM; for `Cn1nccc1-c1cc(F)ccc1Oc1ccc(S(=O)(=O)Nc2ncc(F)s2)cc1C#N` [Example 386, 3-cyano-4-[4-fluoro-2-(1-methyl-1H-pyrazol-5-yl)phenoxy]-N-(5-fluoro-1,3-thiazol-2-yl)benzenesulfonamide] it is 91 nM.
On the same count and under the same terms, the figure for `O=S(=O)(Nc1cscn1)c1ccc(Oc2ccc(Cl)cc2-c2cn[nH]c2)c(Cl)c1` [Example 673, 3-chloro-4-[4-chloro-2-(1H-pyrazol-4-yl)phenoxy]-N-1,3-thiazol-4-ylbenzenesulfonamide] is 690 nM.
Turning to `CCn1nc(C(F)(F)F)c(Cl)c1-c1ccc(Oc2ccc(S(=O)(=O)Nc3nccs3)cc2C#N)cc1` [Example 695, 4-{4-[4-chloro-1-ethyl-3-(trifluoromethyl)-1H-pyrazol-5-yl]phenoxy}-3-cyano-N-1,3-thiazol-2-ylbenzenesulfonamide], the IC50 is 340 nM.
The same measure, in the same setting: the value for `N#Cc1cc(S(=O)(=O)Nc2ccc(F)cn2)ccc1Oc1ccc(Cl)cc1-c1cn[nH]c1` [Example 314, 4-[4-chloro-2-(1H-pyrazol-4-yl)phenoxy]-3-cyano-N-(5-fluoropyridin-2-yl)benzenesulfonamide] was 730 nM; that for `CCn1nc(C(F)(F)F)cc1-c1ccc(Oc2ccc(S(=O)(=O)Nc3ncc(F)s3)cc2C#N)c(F)c1` [Example 537, 3-cyano-4-{4-[1-ethyl-3-(trifluoromethyl)-1H-pyrazol-5-yl]-2-fluorophenoxy}-N-(5-fluoro-1,3-thiazol-2-yl)benzenesulfonamide] was 25 nM.
Still for that read-out and setting: the figure for `COc1cc(Oc2ccc(S(=O)(=O)Nc3ccc(F)cn3)cc2C#N)ccc1-n1ccnc1C` [Example 578, 3-cyano-N-(5-fluoropyridin-2-yl)-4-[3-methoxy-4-(2-methyl-1H-imidazol-1-yl)phenoxy]benzenesulfonamide] is 5500 nM; for `Cn1ncnc1-c1cc(Cl)ccc1Oc1ccc(S(=O)(=O)Nc2ncc(F)s2)cc1C#N` [Example 717, 4-[4-chloro-2-(1-methyl-1H-1,2,4-triazol-5-yl)phenoxy]-3-cyano-N-(5-fluoro-1,3-thiazol-2-yl)benzenesulfonamide] it is greater than 300 nM.
Same read-out and setting: the value for “4-(4-chloro-2-piperidin-4-ylphenoxy)-2,5-difluoro-N-1,2,4-thiadiazol-5-ylbenzenesulfonamide [Example 636]” was 8.4 nM.
`N#Cc1cc(S(=O)(=O)Nc2ncc(Cl)s2)ccc1Oc1ccc(Cl)cc1-c1ccnc(CO)c1` [Example 586, 4-{4-Chloro-2-[2-(hydroxymethyl)pyridin-4-yl]phenoxy}-N-(5-chloro-1,3-thiazol-2-yl)-3-cyanobenzenesulfonamide]: the IC50 was 140 nM.
On the same count and under the same terms, the figure for `N#Cc1cc(S(=O)(=O)Nc2ncc(Cl)s2)ccc1Oc1ccc(Cl)cc1-c1ccnn1C(F)F` [Example 595, 4-{4-Chloro-2-[1-(difluoromethyl)-1H-pyrazol-5-yl]phenoxy}-N-(5-chloro-1,3-thiazol-2-yl)-3-cyanobenzenesulfonamide] is 80 nM; for `CN1CCC(c2cccc(Oc3ccc(S(=O)(=O)Nc4ccc(F)cn4)cc3C#N)c2)CC1` [Example 573, 3-cyano-N-(5-fluoropyridin-2-yl)-4-[3-(1-methylpiperidin-4-yl)phenoxy]benzenesulfonamide] it is 7300 nM.

The same test, now with this note: estimated IC50; hSCN9A HEK cells, PatchXpress platform; Examples 815-1040.
For `N#Cc1cc(S(=O)(=O)Nc2ncns2)ccc1Oc1ccc(C(F)(F)F)cc1-c1ccncc1` [Example 960, 3-cyano-4-[2-pyridin-4-yl-4-(trifluoromethyl)phenoxy]-N-1,2,4-thiadiazol-5-ylbenzenesulfonamide], the IC50 was 4 nM.
On the same count and under the same terms, the figure for `N#Cc1cc(S(=O)(=O)Nc2ncns2)ccc1Oc1ccc(Cl)cc1-c1ccnc(OC2CCC2)c1` [Example 1025, 4-{4-Chloro-2-[2-(cyclobutyloxy)pyridin-4-yl]phenoxy}-3-cyano-N-1,2,4-thiadiazol-5-ylbenzenesulfonamide] is 4.1 nM; for `N#Cc1cc(S(=O)(=O)Nc2ncns2)ccc1Oc1ccc(Cl)cc1-c1ccnc(N2CCNCC2)n1` [Example 1030, 4-[4-Chloro-2-(2-piperazin-1-ylpyrimidin-4-yl)phenoxy]-3-cyano-N-1,2,4-thiadiazol-5-ylbenzenesulfonamide] it is 0.7 nM.
On to `N#Cc1cc(S(=O)(=O)Nc2nncs2)ccc1Oc1ccc(Cl)cc1-c1ccnc(N2CCNCC2)c1` [Example 835, 4-[4-chloro-2-(2-piperazin-1-ylpyridin-4-yl)phenoxy]-3-cyano-N-1,3,4-thiadiazol-2-ylbenzenesulfonamide], for which the IC50 was 2.1 nM.
In the case of `Cn1nccc1-c1cc(Cl)ccc1Oc1ccc(S(=O)(=O)Nc2ncccn2)cc1Cl` [Example 955, 3-chloro-4-[4-chloro-2-(1-methyl-1H-pyrazol-5-yl)phenoxy]-N-pyrimidin-2-ylbenzenesulfonamide], the IC50 was 76 nM.
The same measure, in the same setting: the value for `O=S(=O)(Nc1nncs1)c1cc(Cl)c(Oc2cc(F)c(C(F)(F)F)cc2-c2ccnnc2)cc1F` [Example 1034, 5-Chloro-2-fluoro-4-[5-fluoro-2-pyridazin-4-yl-4-(trifluoromethyl)phenoxy]-N-1,3,4-thiadiazol-2-ylbenzenesulfonamide] was 11 nM.
For `N#Cc1cc(S(=O)(=O)Nc2cscn2)ccc1Oc1ccc(OC(F)(F)F)cc1-c1ccnn1C1CNC1` [Example 962, 4-[2-(1-azetidin-3-yl-1H-pyrazol-5-yl)-4-(trifluoromethoxy)phenoxy]-3-cyano-N-1,3-thiazol-4-ylbenzenesulfonamide], the IC50 is 9.9 nM.
The same measure, in the same setting: the figure for `O=S(=O)(Nc1ncns1)c1cc(F)c(Oc2cc(Cl)c(F)cc2-c2ccnnc2)cc1F` [Example 937, 4-(5-chloro-4-fluoro-2-pyridazin-4-ylphenoxy)-2,5-difluoro-N-1,2,4-thiadiazol-5-ylbenzenesulfonamide] is 19 nM.
The same measure, in the same setting: the figure for `Nc1cc(-c2cc(Cl)ccc2Oc2cc(F)c(S(=O)(=O)Nc3cscn3)cc2F)ccn1` [Example 1020, 4-[2-(2-aminopyridin-4-yl)-4-dchlorophenoxy]-2,5-ifluoro-N-1,3-thiazol-4-ylbenzenesulfonamide] is 19 nM.
